Measured values from PubChem BioAssay (NCI).
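Step 1: Grow cells in 96-well plates. Step 2: Expose to compound for 48 hours at 5 concentrations. Step 3: Interpolate endpoints linearly; if unreached, use highest concentration. At the TGI there is no net growth.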

Experiments:
Test in all cases: inhibition of tumour cell growth, NCI panel, 48 h
[1] = test system: A498 renal
[2] = test system: SW-620 colon
[3] = test system: SNB-75 CNS
[4] = test system: ACHN renal
[5] = test system: OVCAR-5 ovarian
[6] = test system: MDA-N
[7] = test system: NCI-H23 lung
[8] = test system: SN12C renal
[9] = test system: RXF 393 renal
[10] = test system: SK-MEL-28 melanoma
[11] = test system: UACC-257 melanoma
[12] = test system: HS 578T breast
[13] = test system: MCF7 breast
[14] = test system: BT-549 breast
[15] = test system: T-47D breast
[16] = test system: HOP-92 NSCLC
[17] = test system: SF-295 CNS
[18] = test system: RPMI-8226 leukemia
[19] = test system: OVCAR-3 ovarian
[20] = test system: SF-268 CNS
[21] = test system: CAKI-1 renal
[22] = test system: SR leukemia
[23] = test system: DU-145 prostate
[24] = test system: SF-539 CNS
[25] = test system: M14 melanoma
[26] = test system: SNB-19 CNS
[27] = test system: HCT-15 colon
[28] = test system: 786-0 renal
[29] = test system: MOLT-4 leukemia
[30] = test system: NCI-H460 lung
[31] = test system: SK-OV-3 ovarian
[32] = test system: MDA-MB-231 breast
[33] = test system: A549 NSCLC
[34] = test system: UO-31 renal
[35] = test system: IGROV1 ovarian
[36] = test system: CCRF-CEM leukemia
[37] = test system: OVCAR-4 ovarian
[38] = test system: KM12 colon
[39] = test system: SK-MEL-2 melanoma
[40] = test system: UACC-62 melanoma
[41] = test system: TK-10 renal
[42] = test system: COLO 205 colon
[43] = test system: MALME-3M melanoma
[44] = test system: MDA-MB-435
[45] = test system: NCI/ADR-RES ovarian
[46] = test system: HL-60(TB) leukemia
[47] = test system: K-562 leukemia
[48] = test system: U251 CNS
[49] = test system: HT29 colon
[50] = test system: HOP-62 NSCLC
[51] = test system: HCC-2998 colon
[52] = test system: PC-3 prostate
[53] = test system: NCI-H522 lung
[54] = test system: EKVX NSCLC
[55] = test system: HCT-116 colon
[56] = test system: NCI-H226 lung
[57] = test system: LOX IMVI melanoma
[58] = test system: SK-MEL-5 melanoma
[59] = test system: OVCAR-8 ovarian
[60] = test system: LXFL 529 NSCLC
[61] = test system: DLD-1 colon
[62] = test system: HOP-18 NSCLC
[63] = test system: SNB-78 CNS
[64] = test system: XF 498 CNS
[65] = test system: DMS 273 small cell lung

Question: For `NCCCCNC1(c2cc3ccccc3s2)CCCCC1`, which TGI [1] is on record?
Answer: The TGI was 6.04 µM.

Question: What about the TGI [2] of the same molecule?
Answer: The TGI was 14.6 µM.

Question: And the TGI [3]?
Answer: Its TGI is 9.9 µM.

Question: And the TGI [4]?
Answer: The TGI was 23.2 µM.

Question: And the TGI [5]?
Answer: Its TGI is 19.2 µM.

Question: What about the TGI [6] of the same molecule?
Answer: The TGI was 3.39 µM.

Question: And the TGI [7]?
Answer: Its TGI is 28.9 µM.

Question: And the TGI [8]?
Answer: The TGI was 25.1 µM.

Question: What about the TGI [9] of the same molecule?
Answer: Its TGI is 14.9 µM.

Question: What about the TGI [10] of the same molecule?
Answer: Its TGI is 3.81 µM.

Question: What about the TGI [11] of the same molecule?
Answer: The TGI was 3.38 µM.

Question: What about the TGI [12] of the same molecule?
Answer: The TGI was 20.4 µM.

Question: And the TGI [13]?
Answer: The TGI was 9.75 µM.

Question: And the TGI [14]?
Answer: Its TGI is 25.4 µM.

Question: And the TGI [15]?
Answer: Its TGI is 5.23 µM.

Question: What about the TGI [16] of the same molecule?
Answer: Its TGI is 20.8 µM.

Question: What about the TGI [17] of the same molecule?
Answer: The TGI was 8.83 µM.

Question: And the TGI [18]?
Answer: The TGI was 6.1 µM.

Question: And the TGI [19]?
Answer: The TGI was 9.28 µM.

Question: What about the TGI [20] of the same molecule?
Answer: Its TGI is 13.5 µM.

Question: What about the TGI [21] of the same molecule?
Answer: Its TGI is 28.1 µM.

Question: And the TGI [22]?
Answer: The TGI was 3.58 µM.

Question: What about the TGI [23] of the same molecule?
Answer: The TGI was 23.5 µM.

Question: What about the TGI [24] of the same molecule?
Answer: The TGI was 4.59 µM.

Question: And the TGI [25]?
Answer: Its TGI is 3.8 µM.

Question: And the TGI [26]?
Answer: The TGI was 21.1 µM.

Question: And the TGI [27]?
Answer: Its TGI is 17.7 µM.

Question: What about the TGI [28] of the same molecule?
Answer: Its TGI is 3.95 µM.

Question: What about the TGI [29] of the same molecule?
Answer: Its TGI is 8.37 µM.

Question: What about the TGI [30] of the same molecule?
Answer: The TGI was 7.42 µM.

Question: What about the TGI [31] of the same molecule?
Answer: The TGI was 28 µM.

Question: What about the TGI [32] of the same molecule?
Answer: The TGI was 11.4 µM.

Question: And the TGI [33]?
Answer: Its TGI is 20.5 µM.

Question: What about the TGI [34] of the same molecule?
Answer: Its TGI is 9.94 µM.

Question: What about the TGI [35] of the same molecule?
Answer: The TGI was 13.1 µM.

Question: And the TGI [36]?
Answer: Its TGI is 5.44 µM.

Question: And the TGI [37]?
Answer: Its TGI is 20.5 µM.

Question: What about the TGI [38] of the same molecule?
Answer: The TGI was 10.7 µM.

Question: And the TGI [39]?
Answer: Its TGI is 3.58 µM.

Question: What about the TGI [40] of the same molecule?
Answer: The TGI was 3.79 µM.

Question: And the TGI [41]?
Answer: Its TGI is 10.4 µM.

Question: And the TGI [42]?
Answer: The TGI was 3.5 µM.

Question: What about the TGI [43] of the same molecule?
Answer: Its TGI is 4.01 µM.

Question: And the TGI [44]?
Answer: The TGI was 3.49 µM.

Question: What about the TGI [45] of the same molecule?
Answer: The TGI was 21.2 µM.

Question: And the TGI [46]?
Answer: Its TGI is 12.6 µM.

Question: What about the TGI [47] of the same molecule?
Answer: Its TGI is 3.56 µM.

Question: And the TGI [48]?
Answer: The TGI was 5.49 µM.

Question: And the TGI [49]?
Answer: The TGI was 9.7 µM.

Question: What about the TGI [50] of the same molecule?
Answer: The TGI was 20 µM.

Question: What about the TGI [51] of the same molecule?
Answer: The TGI was 3.1 µM.

Question: What about the TGI [52] of the same molecule?
Answer: Its TGI is 17.3 µM.

Question: What about the TGI [53] of the same molecule?
Answer: The TGI was 6.19 µM.

Question: And the TGI [54]?
Answer: The TGI was 29.1 µM.

Question: What about the TGI [55] of the same molecule?
Answer: Its TGI is 14.9 µM.

Question: What about the TGI [56] of the same molecule?
Answer: Its TGI is 34 µM.

Question: And the TGI [57]?
Answer: The TGI was 4.03 µM.

Question: What about the TGI [58] of the same molecule?
Answer: Its TGI is 3.63 µM.

Question: What about the TGI [59] of the same molecule?
Answer: The TGI was 20.9 µM.

Question: Which results are given for `COC(=O)c1cccc(C(=O)OC)c1`?
Answer: TGI [1]: > 100 µM; TGI [2]: > 100 µM; TGI [3]: > 100 µM; TGI [4]: > 100 µM; TGI [5]: > 100 µM; TGI [7]: > 100 µM; TGI [8]: > 100 µM; TGI [9]: > 100 µM; TGI [10]: > 100 µM; TGI [11]: > 100 µM; TGI [16]: > 100 µM; TGI [17]: > 100 µM; TGI [60]: > 100 µM; TGI [18]: > 100 µM; TGI [20]: > 100 µM; TGI [21]: > 100 µM; TGI [22]: > 100 µM; TGI [25]: > 100 µM; TGI [26]: > 100 µM; TGI [27]: > 100 µM; TGI [29]: > 100 µM; TGI [30]: > 100 µM; TGI [31]: > 100 µM; TGI [33]: > 100 µM; TGI [61]: > 100 µM; TGI [36]: > 100 µM; TGI [37]: > 100 µM; TGI [38]: > 100 µM; TGI [39]: > 100 µM; TGI [41]: > 100 µM; TGI [42]: > 100 µM; TGI [43]: > 100 µM; TGI [62]: > 100 µM; TGI [46]: > 100 µM; TGI [63]: > 100 µM; TGI [48]: > 100 µM; TGI [49]: > 100 µM; TGI [64]: > 100 µM; TGI [50]: > 100 µM; TGI [51]: > 100 µM; TGI [65]: > 100 µM; TGI [53]: > 100 µM; TGI [55]: > 100 µM; TGI [56]: > 100 µM; TGI [57]: > 100 µM
